Test results: PMC3890692 (ACS medicinal chemistry letters, 2013)

What was measured:
B. anthracis (Sterne) = details: mice infected with a lethal dose of B. anthracis (Sterne); cited from earlier work
[1] = Mouse pharmacokinetic study, intraperitoneal
[2] = following a single dose, i.p., mice

SMILES: O=C([O-])[C@H](Cc1ccccc1)N1C(=O)/C(=C\c2ccc(-c3ccc(Cl)c(Cl)c3)o2)NC1=S.[Na+] [Compound 12-ES-Na]
- prevention of mortality / block of infection (B. anthracis (Sterne)): can effectively block Bacillus anthracis infection in mice
- Cl ([1]; Group 1, 25 mg/kg i.p., CD-1 female mice): 2.33 mL/min/kg
- Cl ([1]; Group 2, 50 mg/kg i.p., CD-1 female mice): 1.67 mL/min/kg
- Cl ([1]; Group 3, 100 mg/kg i.p., CD-1 female mice): 0.917 mL/min/kg
- mortality and clinical observations ([1]; dosage below 100 mg/kg, i.p., CD-1 female mice): no mortality and no significant clinical observations
- AUC relative to the MIC [1, 2]: more than 200 fold
- time of concentration above MIC [1, 2]: more than 10 hours
- clearance ([1]; rodent PK profile, i.p., mice): ~ 100 mL/h/kg
